Data taken from patent US11999727B2 (Tango Therapeutics, Inc., priority 2020, dated 2024).

Key:
[1] = system: HAP1 MTAP-deleted cell line; experiment: SDMA in-cell western assay, HAP1 MTAP-deleted; format: cell-based; details: for IC50: Homo sapiens, HAP1, SDMA in-cell western, HAP1 MTAP-deleted, read-out: HAP1 MTAP deleted IC50; for MTAP intact/deleted ratio: IC50 ratio HAP1 MTAP-intact / HAP1 MTAP-deleted, SDMA in-cell western
Outline: (§1)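 IC50 values come from SDMA signal quantified by in-cell western in two HAP1 lines, one with native MTAP levels and one lacking MTAP.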

[2] = biological target: T1, PRMT5 (Homo sapiens, UniProt O14744); experiment: PRMT5 biochemical IC50 assay with SAM as cofactor; details: PRMT5, SAM as cofactor; read-out: SAM IC50
T1 construct: purchased Viva (custom protein)

[3] = system: HAP1 MTAP-deleted cell line; experiment: Viability assay, MTAP-deleted cell line; format: cell-based; details: Homo sapiens, HAP1, viability assay, MTAP-deleted cell line; read-out: HAP1 MTAP deleted viability
Excerpt: Table 1 additionally indicates IC50 values in a viability assay for the MTAP-deleted cell line (column 10), indicating the effect of treatment with compound on cell survival.

[4] = system: HAP1 MTAP-intact cell line; experiment: SDMA in-cell western assay, HAP1 MTAP-intact; format: cell-based; details: Homo sapiens, HAP1, SDMA in-cell western, HAP1 MTAP-intact; read-out: MTAP HAP1 intact IC50
Outline: as §1

[5] = biological target: T1, PRMT5; experiment: PRMT5 biochemical IC50 assay with no cofactor; details: PRMT5, no cofactor; read-out: No Cofactor/rel IC50
Excerpt: Table 1 indicates IC50 values (μM) against PRMT5 for exemplary compounds in the presence of SAM as cofactor, with no cofactor, and with MTA as cofactor, respectively (columns 4-6). […] Ki values can be calculated from the IC50 values as described in the Examples section. As detailed in the Examples section, for the assay performed in the presence of SAM, IC50=Ki×1.5 (Ki=IC50/1.5).

[6] = biological target: T1, PRMT5; experiment: PRMT5 biochemical IC50 assay with MTA as cofactor; details: PRMT5, MTA as cofactor; read-out: MTA IC50

T1 sequence (O14744 whole entry): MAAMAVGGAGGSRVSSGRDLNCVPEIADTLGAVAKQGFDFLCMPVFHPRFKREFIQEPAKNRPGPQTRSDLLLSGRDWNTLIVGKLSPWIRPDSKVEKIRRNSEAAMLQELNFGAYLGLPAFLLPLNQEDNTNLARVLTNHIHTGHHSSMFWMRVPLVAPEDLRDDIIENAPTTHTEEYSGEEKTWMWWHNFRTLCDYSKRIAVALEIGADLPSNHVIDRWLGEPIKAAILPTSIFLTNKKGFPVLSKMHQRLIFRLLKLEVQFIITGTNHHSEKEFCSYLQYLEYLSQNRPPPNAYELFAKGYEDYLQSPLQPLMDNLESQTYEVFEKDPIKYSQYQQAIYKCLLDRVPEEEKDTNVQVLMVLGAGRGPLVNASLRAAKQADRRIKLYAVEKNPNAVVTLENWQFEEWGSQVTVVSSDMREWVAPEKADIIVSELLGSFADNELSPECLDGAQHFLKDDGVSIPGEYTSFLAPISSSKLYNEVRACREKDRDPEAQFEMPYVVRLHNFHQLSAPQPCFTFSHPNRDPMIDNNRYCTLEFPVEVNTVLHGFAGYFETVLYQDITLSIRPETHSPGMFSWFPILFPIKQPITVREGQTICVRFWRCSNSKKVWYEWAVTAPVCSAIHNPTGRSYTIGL
T1 sequence (Q9BQA1 whole entry partner): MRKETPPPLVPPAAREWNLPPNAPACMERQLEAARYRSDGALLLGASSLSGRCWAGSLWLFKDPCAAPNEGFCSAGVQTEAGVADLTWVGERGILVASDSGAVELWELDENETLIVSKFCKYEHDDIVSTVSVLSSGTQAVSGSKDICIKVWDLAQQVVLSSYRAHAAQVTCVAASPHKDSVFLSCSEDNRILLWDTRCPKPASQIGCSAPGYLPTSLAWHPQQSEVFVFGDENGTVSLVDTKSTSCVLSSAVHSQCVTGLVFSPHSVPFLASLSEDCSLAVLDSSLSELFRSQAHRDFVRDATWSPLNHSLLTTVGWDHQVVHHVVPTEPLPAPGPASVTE

SMILES | IC50 [1] [µM] | MTAP intact/deleted ratio [1] | IC50 [2] [µM] | IC50 [3] [µM] | IC50 [4] [µM] | IC50 [5] [µM] | IC50 [6] [µM]
C[C@H]1CN(C(=O)C(=O)Nc2cncc(C(N)=O)c2)[C@H](c2ccccc2)CC1(F)F (single isomer, unassigned) [Compound 457] | < 0.1 | A (an IC50 ratio greater than or equal to 10 fold) | 0.05 to 0.5 | < 1 | > 1 | 0.05 to 0.5 | < 0.05
Cc1cc(NC(=O)C(=O)N2C[C@H](C)CC[C@H]2c2ccc(F)c(F)c2)cnc1N (single isomer, unassigned) [Compound 458] | < 0.1 | A (an IC50 ratio greater than or equal to 10 fold) | 0.05 to 0.5 | 1 to 10 | 0.1 to 1 | < 0.05 | < 0.05
COc1ncc(NC(=O)C(=O)N2C[C@@H](C)CC[C@@H]2c2ccc(N)nc2)cc1C(N)=O (single isomer, unassigned) [Compound 460] | < 0.1 | A (an IC50 ratio greater than or equal to 10 fold) | 0.05 to 0.5 | < 1 | > 1 | < 0.05 | < 0.05
Cc1cc(NC(=O)C(=O)N2C[C@H](C)CC[C@H]2c2ccc(N)cc2)cnc1N (single isomer, unassigned) [Compound 461] | < 0.1 | B (an IC50 ratio greater than or equal to 3 fold but lower than 10 fold) | 0.05 to 0.5 | < 1 | 0.1 to 1 | < 0.05 | < 0.05
C[C@H]1CC[C@H](c2ccc(NS(C)(=O)=O)cc2)N(C(=O)C(=O)Nc2cncc(C(N)=O)c2)C1 (single isomer, unassigned) [Compound 462] | 0.1 to 1 | A (an IC50 ratio greater than or equal to 10 fold) | 0.05 to 0.5 | 1 to 10 | > 1 | 0.05 to 0.5 | < 0.05
COc1ncc(NC(=O)C(=O)N2C[C@@H](C)CC[C@@H]2c2ccc3[nH]ncc3c2)cc1C(N)=O (single isomer, unassigned) [Compound 464] | < 0.1 | A (an IC50 ratio greater than or equal to 10 fold) | 0.05 to 0.5 | < 1 | 0.1 to 1 | < 0.05 | < 0.05
COc1ncc(NC(=O)C(=O)N2C[C@H](C)CC[C@H]2c2ccc3[nH]ncc3c2)cc1C(N)=O (single isomer, unassigned) [Compound 465] | > 1 | B (an IC50 ratio greater than or equal to 3 fold but lower than 10 fold) | > 0.5 | > 10 | > 1 | > 0.5 | > 0.5
C[C@H]1CC[C@H](c2csc3ccccc23)N(C(=O)C(=O)Nc2cncc(C(N)=O)c2)C1 (single isomer, unassigned) [Compound 466] | > 1 | C (an IC50 ratio of less than 3 fold) | > 0.5 | > 10 | > 1 | > 0.5 | > 0.5
CNc1ccc([C@H]2CC[C@@H](C)CN2C(=O)C(=O)Nc2cnc(OC)c(C(N)=O)c2)cn1 (single isomer, unassigned) [Compound 467] |  | C (an IC50 ratio of less than 3 fold) | > 0.5 | > 10 | > 1 | > 0.5 | > 0.5
CNc1ccc([C@@H]2CC[C@H](C)CN2C(=O)C(=O)Nc2cnc(OC)c(C(N)=O)c2)cn1 (single isomer, unassigned) [Compound 468] | > 1 | C (an IC50 ratio of less than 3 fold) | > 0.5 | > 10 | > 1 | > 0.5 | > 0.5
C[C@@H]1CC[C@@H](c2ccc(NS(C)(=O)=O)cc2)N(C(=O)C(=O)Nc2cncc(C(N)=O)c2)C1 (single isomer, unassigned) [Compound 469] | > 1 | C (an IC50 ratio of less than 3 fold) | > 0.5 | > 10 | > 1 | > 0.5 | > 0.5
COc1ncc(NC(=O)C(=O)N2C[C@H](C)CC[C@H]2c2ccc(N)nc2)cc1C(N)=O (single isomer, unassigned) [Compound 471] | > 1 | C (an IC50 ratio of less than 3 fold) | > 0.5 | > 10 | > 1 | > 0.5 | > 0.5
Cc1cc(NC(=O)C(=O)N2C[C@@H](C)CC[C@@H]2c2ccc(F)c(F)c2)cnc1N (single isomer, unassigned) [Compound 472] | > 1 | C (an IC50 ratio of less than 3 fold) | > 0.5 | > 10 | > 1 | > 0.5 | > 0.5
C[C@@H]1CN(C(=O)C(=O)Nc2cncc(C(N)=O)c2)[C@@H](c2ccccc2)CC1(F)F (single isomer, unassigned) [Compound 473] | > 1 | C (an IC50 ratio of less than 3 fold) | > 0.5 | > 10 | > 1 | > 0.5 | > 0.5
C[C@@H]1CC[C@@H](c2ccc(F)c(F)c2)N(C(=O)C(=O)Nc2cncc(C(N)=O)c2)C1 (single isomer, unassigned) [Compound 474] | > 1 | C (an IC50 ratio of less than 3 fold) | > 0.5 | > 10 | > 1 | > 0.5 | > 0.5
C[C@H]1CC[C@H](c2ccc(F)c(F)c2)N(C(=O)C(=O)Nc2cncc(C(N)=O)c2)C1 (single isomer, unassigned) [Compound 475] | 0.1 to 1 | A (an IC50 ratio greater than or equal to 10 fold) | 0.05 to 0.5 | 1 to 10 | > 1 | 0.05 to 0.5 | < 0.05
C[C@@H]1CC[C@@H](c2cc(F)c(F)c(F)c2)N(C(=O)C(=O)Nc2cncc(C(N)=O)c2)C1 (single isomer, unassigned) [Compound 476] | > 1 | C (an IC50 ratio of less than 3 fold) | > 0.5 | > 10 | > 1 | > 0.5 | > 0.5
C[C@H]1CC[C@H](c2cc(F)c(F)c(F)c2)N(C(=O)C(=O)Nc2cncc(C(N)=O)c2)C1 (single isomer, unassigned) [Compound 477] | < 0.1 | A (an IC50 ratio greater than or equal to 10 fold) | 0.05 to 0.5 | 1 to 10 | > 1 | 0.05 to 0.5 | < 0.05
Cc1cc(NC(=O)C(=O)N2C[C@H](C)CC[C@H]2c2cc(F)c(F)c(F)c2)cnc1N (single isomer, unassigned) [Compound 478] | 0.1 to 1 | A (an IC50 ratio greater than or equal to 10 fold) | 0.05 to 0.5 | 1 to 10 | > 1 | 0.05 to 0.5 | < 0.05
C[C@@H]1CC[C@@H](c2ccccc2)N(C(=O)C(=O)Nc2cncc(C(N)=O)c2)[C@H]1C (single isomer, unassigned) [Compound 482] | < 0.1 | A (an IC50 ratio greater than or equal to 10 fold) | 0.05 to 0.5 | < 1 | > 1 | 0.05 to 0.5 | < 0.05
C[C@@H]1[C@@H](C)CC[C@H](c2ccccc2)N1C(=O)C(=O)Nc1cncc(C(N)=O)c1 (single isomer, unassigned) [Compound 483] | > 1 | C (an IC50 ratio of less than 3 fold) | > 0.5 | > 10 | > 1 | > 0.5 | > 0.5
Cc1ccc([C@H]2CC[C@H](C)CN2C(=O)C(=O)Nc2cncc(C(N)=O)c2)cc1Cl (single isomer, unassigned) [Compound 484] | < 0.1 | A (an IC50 ratio greater than or equal to 10 fold) | 0.05 to 0.5 | 1 to 10 | > 1 | 0.05 to 0.5 | < 0.05
Cc1ccc([C@@H]2CC[C@@H](C)CN2C(=O)C(=O)Nc2cncc(C(N)=O)c2)cc1Cl (single isomer, unassigned) [Compound 485] | > 1 | C (an IC50 ratio of less than 3 fold) | > 0.5 | > 10 | > 1 | > 0.5 | > 0.5
